Measured values as given in US10882856B2 (BeiGene, Ltd., priority 2017, dated 2021).

What was measured:
[1] = target: T1, cellular TDO2 in HEK293-TDO2 cells (Homo sapiens, UniProt P48775); assay: 293-TDO2 cell-based assay (Kyn colorimetric); settings: 48 hours of incubation
T1 construct: expressed in transfected cells; host or cells: HEK293 (ATCC), stably transfected
How it was run: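 HEK293 cells stably expressing TDO2 (10000/well, phenol red-free DMEM, 10% FBS) were dosed 4 h after plating and incubated 48 h at 37° C. Supernatant Kyn was measured after TCA precipitation by 4-(dimethylamino)benzaldehyde colour at 480 nm. IC50 came from four-parameter logistic fits.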

[2] = target: T2, IDO1 (Homo sapiens, UniProt P14902); assay: Hela cell-based IDO1 assay; settings: Hela cells
T2 sequence (P14902 whole entry): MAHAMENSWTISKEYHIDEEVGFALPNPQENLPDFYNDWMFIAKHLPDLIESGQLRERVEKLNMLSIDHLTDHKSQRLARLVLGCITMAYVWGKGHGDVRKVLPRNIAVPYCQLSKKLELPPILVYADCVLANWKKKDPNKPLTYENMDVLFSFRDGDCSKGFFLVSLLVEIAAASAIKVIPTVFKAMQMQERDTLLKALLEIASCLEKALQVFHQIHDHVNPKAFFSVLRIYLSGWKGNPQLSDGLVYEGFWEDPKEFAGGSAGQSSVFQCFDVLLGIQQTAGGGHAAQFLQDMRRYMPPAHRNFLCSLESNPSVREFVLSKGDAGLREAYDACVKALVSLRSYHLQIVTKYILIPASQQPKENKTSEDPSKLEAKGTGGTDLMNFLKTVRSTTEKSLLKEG
How it was run: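 Kynurenine was measured at 480 nm in trichloroacetic acid-deproteinised supernatant after adding 2% 4-(dimethylamino)benzaldehyde. This supernatant came from HeLa cells seeded at 8000 per well in 96-well plates in phenol red-free DMEM with 10% FBS and, from 4 hours after seeding, exposed for 48 hours at 37 °C, 5% CO2 to DMSO-diluted compound dilutions, IFN-γ (final 100 ng/mL) and 0.4 mM L-Trp. The resulting data were fitted with a four-parameter logistic model in XLfit. Potency was taken from those fits.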

[3] = target: T2, IDO1; assay: IDO1 enzymatic assay; format: biochemical; parameters: His tag (N); made in house; host or cells: E. coli; settings: read-out: Enzyme IC50 IDO1
How it was run: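 Compound was incubated with 50 nM His-tagged IDO1 from E. coli, 1.3 mM D-tryptophan, 5 mM L-ascorbic acid, methylene blue and 0.4 mg/mL catalase in 50 mM potassium phosphate pH 7.5, 0.1% BSA, at 24 °C for 1.5 hours. Activity was the slope of N'-formylkynurenine formation read continuously at 321 nm for 1 hour. IC50 was obtained from remaining activity versus compound concentration.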

T1 sequence (P48775 whole entry): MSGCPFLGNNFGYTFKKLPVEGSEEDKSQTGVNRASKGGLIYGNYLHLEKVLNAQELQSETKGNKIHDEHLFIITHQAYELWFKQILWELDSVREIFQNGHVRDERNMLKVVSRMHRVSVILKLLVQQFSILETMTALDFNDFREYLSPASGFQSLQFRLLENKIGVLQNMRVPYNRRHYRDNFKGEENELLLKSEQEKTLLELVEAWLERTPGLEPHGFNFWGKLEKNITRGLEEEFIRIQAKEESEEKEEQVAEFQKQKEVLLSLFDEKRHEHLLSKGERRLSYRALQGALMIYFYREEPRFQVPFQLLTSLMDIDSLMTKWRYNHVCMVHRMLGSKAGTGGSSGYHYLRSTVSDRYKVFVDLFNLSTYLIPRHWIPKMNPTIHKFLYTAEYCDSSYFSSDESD

SMILES	EC50 [1] [nM]	EC50 [2] [nM]	IC50 [3] [nM]
COc1ccc(N2CCC(C(O)c3c(C4CC4)ccn4cncc34)CC2)cc1 (stereo not drawn) [Example C142, (7-cyclopropylimidazo[1,5-a]pyridin-8-yl)(1-(4-methoxyphenyl)piperidin-4-yl)methanol]	> 10000	267	32
OC(c1c(C2CC2)ccn2cncc12)C1CCC(c2cccc3ccccc23)CC1 (stereo not drawn) [Example C121, (7-cyclopropylimidazo[1,5-a]pyridin-8-yl)(4-(naphthalen-1-yl)cyclohexyl)methanol]	> 10000	125	94
OC(c1c(C2CC2)ccc2cncn12)C1CCN(c2ccc(Cl)c3ncccc23)CC1 (stereo not drawn) [Example D178, (1-(8-chloroquinolin-5-yl)piperidin-4-yl)(6-cyclopropylimidazo[1,5-a]pyridin-5-yl)methanol]	> 10000	40	24
CNC(=O)c1ccc([C@H]2CC[C@H]([C@H](O)c3c(C4CC4)ccc4cncn34)CC2)cc1 (single isomer, unassigned) [Example D124a]	> 10000	138	19
COc1ccc([C@H]2CC[C@H]([C@@H](O)c3c(C4CC4)ccc4cncn34)CC2)c(Cl)c1 (single isomer, unassigned) [Example D147b]	> 10000	4500	> 10000
COc1ccc(C2CCC(C(O)c3c(C4CC4)ccc4cncn34)CC2)cc1Cl (stereo not drawn) [Example D148, (4-(3-chloro-4-methoxyphenyl)cyclohexyl)(6-cyclopropylimidazo[1,5-a]pyridin-5-yl)methanol]	> 10000	188	40
COc1ccc(C2CCC(C(O)c3c(C4CC4)ccc4cncn34)CC2)c(F)c1 (stereo not drawn) [Example D146, (6-cyclopropylimidazo[1,5-a]pyridin-5-yl)(4-(2-fluoro-4-methoxyphenyl)cyclohexyl)methanol]	> 10000	210	28
O[C@@H](c1c(C2CC2)ccn2cncc12)[C@H]1CC[C@H](c2ccc(Cl)cc2)CC1 (single isomer, unassigned) [Example C102b]	> 10000	> 10000	> 10000
OC(c1c(C2CC2)ccc2cncn12)C1CCN(c2cccc3ncncc23)CC1 (stereo not drawn) [Example D180, (6-cyclopropylimidazo[1,5-a]pyridin-5-yl)(1-(quinazolin-5-yl)piperidin-4-yl)methanol]	> 10000	40	30
COc1ccccc1C1CCC(C(O)c2c(C3CC3)ccc3cncn23)CC1 (stereo not drawn) [Example D113, (6-cyclopropylimidazo[1,5-a]pyridin-5-yl)(4-(2-methoxyphenyl)cyclohexyl)methanol]	> 10000	95	43
O[C@@H](c1c(C2CC2)ccc2cncn12)[C@H]1CC[C@H](c2cccc(Cl)c2)CC1 (single isomer, unassigned) [Example D116b]	> 10000	6150	5900
OC(c1c(C2CC2)ccn2cncc12)C1CCC(c2ccc(F)c(Cl)c2)CC1 (stereo not drawn) [Example C132, (4-(3-chloro-4-fluorophenyl)cyclohexyl)(7-cyclopropylimidazo[1,5-a]pyridin-8-yl)methanol]	> 10000	384	120
Oc1ccc([C@H]2CC[C@H](C(O)c3c(C4CC4)ccn4cncc34)CC2)cc1 (single isomer, unassigned) [Example C104b]	> 10000	> 10000	5200
OC(c1c(C2CC2)ccc2cncn12)C1CCC(c2ccc(-c3ccccc3)cc2)CC1 (stereo not drawn) [Example D119, (4-([1,1′-biphenyl]-4-yl)cyclohexyl)(6-cyclopropylimidazo[1,5-a]pyridin-5-yl)methanol]	> 10000	668	64
OC(c1c(C2CC2)ccc2cncn12)C1CCC(c2ccc(OC3CCOCC3)cc2)CC1 (stereo not drawn) [Example D114, (6-cyclopropylimidazo[1,5-a]pyridin-5-yl)(4-(4-((tetrahydro-2H-pyran-4-yl)oxy)phenyl)cyclohexyl)methanol]	> 10000	155	32
OCC(CCl)Oc1ccc(C2CCC(C(O)c3c(C4CC4)ccc4cncn34)CC2)cc1 (stereo not drawn) [Example D108, 3-chloro-2-(4-(4-((6-cyclopropylimidazo[1,5-a]pyridin-5-yl) (hydroxy)methyl)cyclohexyl)phenoxy)propan-1-ol]	> 10000	72	30
OC(c1c(C2CC2)ccc2cncn12)C1CCC(c2ccc(Cl)c(F)c2)CC1 (stereo not drawn) [Example D128, (4-(4-chloro-3-fluorophenyl)cyclohexyl)(6-cyclopropylimidazo[1,5-a]pyridin-5-yl)methanol]	> 10000	260	41

SMILES	EC50 [1] [nM]	EC50 [2] [nM]	IC50 [3] [nM]
CC(C)c1ccc2cncn2c1[C@H](O)[C@H]1CC[C@H](c2ccc(F)cc2)CC1 (single isomer, unassigned) [Example D166b]	> 10000	5210	> 10000
O[C@@H](c1c(C2CC2)ccn2cncc12)[C@H]1CC[C@H](c2ccc(C(F)(F)F)cc2)CC1 (single isomer, unassigned) [Example C115b]	> 10000	9450	> 10000
OC(c1c(C2CC2)ccc2cncn12)[C@H]1CC[C@H](c2ccc(C(F)(F)F)nc2)CC1 (single isomer, unassigned) [Example D107b]	> 10000	> 10000	2300
O[C@@H](c1c(C2CC2)ccc2cncn12)[C@H]1CC[C@H](c2ccc(F)cc2)CC1 (single isomer, unassigned) [Example D104b]	> 10000	6830	9900
CN(C)C(=O)c1ccc(C2CCC(C(O)c3c(C4CC4)ccc4cncn34)CC2)cc1 (stereo not drawn) [Example D125, 4-(4-((6-cyclopropylimidazo[1,5-a]pyridin-5-yl)(hydroxy)methyl)cyclohexyl)-N,N-dimethylbenzamide]	> 10000	843	24
O[C@@H](c1c(C2CC2)ccn2cncc12)[C@H]1CC[C@H](c2ccc(F)c(Cl)c2)CC1 (single isomer, unassigned) [Example C132b]	> 10000	> 10000	2500
OC(c1c(C2CC2)ccc2cncn12)C1CCC(c2ccc3ccccc3c2)CC1 (stereo not drawn) [Example D136, (6-cyclopropylimidazo[1,5-a]pyridin-5-yl)(4-(naphthalen-2-yl)cyclohexyl)methanol]	> 10000	358	51
O[C@@H](c1c(C2CC2)ccc2cncn12)[C@H]1CC[C@H](c2ccccc2)CC1 (single isomer, unassigned) [Example D101b]	> 10000	6140	1300
O=C(O)c1ccc(C2CCC(C(O)c3c(C4CC4)ccc4cncn34)CC2)cc1 (stereo not drawn) [Example D111, 4-(4-((6-cyclopropylimidazo[1,5-a]pyridin-5-yl)(hydroxy)methyl)cyclohexyl)benzoic acid]	> 10000	470	25
OC(c1c(C2CC2)ccc2cncn12)C1CCC(c2ccc(F)c(F)c2)CC1 (stereo not drawn) [Example D126, (6-cyclopropylimidazo[1,5-a]pyridin-5-yl)(4-(3,4-difluorophenyl)cyclohexyl)methanol]	> 10000	64	40
OC(c1c(C2CC2)ccc2cncn12)[C@H]1CC[C@H](c2cccc(F)c2F)CC1 (single isomer, unassigned) [Example D132a]	> 10000	113	21
OC(c1c(C2CC2)ccn2cncc12)C1CCN(c2ccc(Cl)c3ncccc23)CC1 (single isomer, unassigned) [Example C154b]	> 10000	6450	2900
OC(c1c(C2CC2)ccn2cncc12)C1CCN(c2ccc(Cl)c3ncccc23)CC1 (single isomer, unassigned) [Example C154a]	> 10000	18	16
OC(c1c(C2CC2)ccn2cncc12)C1CCN(c2ccccn2)CC1 (stereo not drawn) [Example C146, (7-cyclopropylimidazo[1,5-a]pyridin-8-yl)(1-(pyridin-2-yl)piperidin-4-yl)methanol]	> 10000	2230	47
O[C@@H](c1c(C2CC2)ccn2cncc12)[C@H]1CC[C@H](c2ccc(C(F)(F)F)nc2)CC1 (single isomer, unassigned) [Example C120b]	> 10000	> 10000	4800
O[C@@H](c1c(C2CC2)ccc2cncn12)[C@H]1CC[C@H](c2ccc(F)c(F)c2F)CC1 (single isomer, unassigned) [Example D145b]	> 10000	9490	> 10000
